Results: PubChem BioAssay AID402 (SGCOxCompounds, 2006)

Target: Tyrosine-protein phosphatase non-receptor type 14 (Homo sapiens) (UniProt Q15678)
Assay: PTPN14 phosphatase inhibitors, biochemical, human, DiFMUP fluorescence (AID 402)
Conditions: recombinant PTPN14, DiFMUP fluorescence phosphatase assay; at 50 µM; active compounds read high

Sequence of Tyrosine-protein phosphatase non-receptor type 14 (Homo sapiens) (Q15678 whole entry, looked up): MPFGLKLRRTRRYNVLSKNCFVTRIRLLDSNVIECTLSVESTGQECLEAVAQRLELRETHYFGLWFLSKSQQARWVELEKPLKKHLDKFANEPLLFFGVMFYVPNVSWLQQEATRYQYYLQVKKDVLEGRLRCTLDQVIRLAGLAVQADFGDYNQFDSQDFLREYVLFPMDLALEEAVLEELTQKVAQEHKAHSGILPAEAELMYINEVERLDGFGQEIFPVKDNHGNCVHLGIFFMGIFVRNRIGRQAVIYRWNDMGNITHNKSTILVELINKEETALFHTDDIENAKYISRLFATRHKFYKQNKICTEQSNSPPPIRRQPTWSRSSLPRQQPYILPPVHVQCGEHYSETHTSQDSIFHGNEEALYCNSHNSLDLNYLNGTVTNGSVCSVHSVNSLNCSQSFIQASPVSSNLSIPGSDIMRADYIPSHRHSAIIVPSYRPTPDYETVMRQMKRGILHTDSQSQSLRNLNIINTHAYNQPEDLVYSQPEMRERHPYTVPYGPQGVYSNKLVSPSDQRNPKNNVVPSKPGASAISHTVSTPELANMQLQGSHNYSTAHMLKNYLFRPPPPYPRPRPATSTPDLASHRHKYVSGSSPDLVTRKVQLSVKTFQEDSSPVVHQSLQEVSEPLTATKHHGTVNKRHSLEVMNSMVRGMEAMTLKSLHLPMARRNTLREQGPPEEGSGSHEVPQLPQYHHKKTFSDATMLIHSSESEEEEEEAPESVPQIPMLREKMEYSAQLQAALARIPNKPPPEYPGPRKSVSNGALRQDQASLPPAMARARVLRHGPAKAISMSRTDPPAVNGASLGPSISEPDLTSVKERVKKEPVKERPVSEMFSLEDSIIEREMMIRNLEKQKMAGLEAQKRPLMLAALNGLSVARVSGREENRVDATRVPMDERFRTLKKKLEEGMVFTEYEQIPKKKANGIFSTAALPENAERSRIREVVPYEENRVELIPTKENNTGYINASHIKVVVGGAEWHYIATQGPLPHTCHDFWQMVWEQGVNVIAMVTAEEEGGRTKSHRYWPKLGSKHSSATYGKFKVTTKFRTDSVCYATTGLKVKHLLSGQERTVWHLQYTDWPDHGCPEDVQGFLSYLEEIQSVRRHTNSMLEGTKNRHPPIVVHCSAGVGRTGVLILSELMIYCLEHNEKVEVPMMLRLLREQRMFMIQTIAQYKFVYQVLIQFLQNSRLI

Row | Structure (SMILES) | inhibition
1 | CCn1nc(/C=C/c2ccccc2)[n+](=O)c2c(=O)n(C)c(=O)[nH]c21 | 33%
2 | OO.OO.[K+].[O]=[V].c1ccc(-c2ccccn2)nc1 | 72%
3 | Cn1nc(-c2ccccc2)nc2c(=O)n(C)c(=O)nc1-2 | 39.5%
4 | CCn1nc(-c2ccc(Cl)cc2)nc2c(=O)n(C)c(=O)nc1-2 | 30.5%
5 | [NH-]CO.[NH-]CO.[NH-]CO.[NH-]CO.[O]=[V][O][V]=[O] | 28.5%
6 | O=P(O)(O)OC(CO)CO | 27%
7 | CCn1nc(/C=C/c2ccccc2)nc2c(=O)n(C)c(=O)nc1-2 | 24%
8 | O=P(O)(O)Oc1cccc2ccccc12 | 26%
9 | O=C([O-])c1ccccn1.OO.OO.[K+].[K+].[O]=[V] | 73%
10 | Cn1c(=O)[nH]c2c(c1=O)[n+](=O)c(/C=C/c1ccccc1)nn2C | 28%
11 | Cn1nc(/C=C/c2ccccc2)nc2c(=O)n(C)c(=O)nc1-2 | 37%
12 | c1ccc([C@H]2CN3CCSC3=N2)cc1 | 27%
13 | CN(N=O)c1ccc(O)c(O)c1 | 68%
14 | CCn1nc(-c2ccccc2)nc2c(=O)n(C)c(=O)nc1-2 | 25.5%
15 | OO.OO.[K+].[O]=[V].c1cnc2c(c1)ccc1cccnc12 | 49%
16 | O=C(O)c1ccc([O-])cn1.OO.OO.[K+].[K+].[O]=[V] | 70%
17 | O=C(O)c1ccc(O)cn1.OO.[O]=[V] | 62.5%
